± gives the expanded uncertainty stated by the source.
Settings: Crystal

With C[S+](C)[O-] [dimethyl sulfoxide] the Normal melting temperature was 18.51 ± 6 °C.

— the NIST ThermoML archive (doi:10.1021/je700591h)
